These results are taken from PubChem BioAssay (NCI).

Structures are written as SMILES.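 Interpolation was linear, between the two tested concentrations surrounding the appropriate level; five concentrations were tested over 48 hours in 96-well plates. GI50 = concentration required for 50% inhibition of growth. TGI: concentration producing complete growth inhibition.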

Assay in all cases: NCI tumour cell line growth inhibition, 48 h
Experiment [1] deals with U251 CNS.
For experiment [2], the system named is SNB-19 CNS.
Experiment [3] has as its system OVCAR-5 ovarian.
Experiment [4] has as its system MDA-MB-435.
Experiment [5] relates to SF-295 CNS.
Experiment [6] has as its system PC-3 prostate.
In experiment [7] the test system is 786-0 renal.
Experiment [8] deals with T-47D breast.
Experiment [9] has as its system SF-268 CNS.
Experiment [10] deals with UACC-62 melanoma.

Take `N#CC(C#N)=C/C=C(\Sc1nc2ccccc2s1)c1ccc(Cl)cc1`: the GI50 in [1] was 6.82 µM; in experiment [2], 8.12 µM; in experiment [3], 7.02 µM; in experiment [4] it was 2.86 µM; in experiment [5], 8.9 µM; in [6], 6.67 µM. Moreover, the figures for the GI50 in experiment [7], in [9] and in experiment [10] were 3.43 µM, 14.6 µM and 8.89 µM, respectively. The TGI in experiment [1] was 36.4 µM; in experiment [2], more than 41.2 µM; in [3], 21.5 µM; in experiment [4], 11.1 µM; in experiment [5], 27.7 µM; in experiment [6] it was 27.7 µM. Further, the TGI in experiment [7] is 12 µM; in experiment [8] it was more than 33 µM; in experiment [9], 33 µM; in [10], 29.4 µM.
Regarding `CCCCCCCCCCCCC(O)c1ccc(C#CCCCCCCCCCO)o1` (centres undefined), the GI50 in [1] is 18.5 µM; in [2], 31.7 µM; in experiment [3], 20.9 µM; in [4] it was 18.9 µM; in experiment [5], 16.4 µM; in [6], 25.2 µM. In addition, the GI50 in [7] was 18.9 µM; in experiment [8], 44.2 µM; in [9], 23.2 µM; in [10] it was 19.7 µM. The TGI in [1] is 33.6 µM; in experiment [2], 83.1 µM; in experiment [3], 39.2 µM; in experiment [4], 34.3 µM; in [5] it was 31.7 µM; in [6], 59.6 µM. In addition, the TGI was 34.4 µM in experiment [7], more than 100 µM in [8], 49.4 µM in experiment [9] and 40.3 µM in [10].
In the case of `COc1cccc(C(=O)NC(c2ccc(C)cc2)c2cc(Cl)c3cccnc3c2O)c1` (centres undefined), the GI50 in experiment [1] was 0.333 µM; in [2] it was 0.371 µM; in experiment [3] it was 1.13 µM; in experiment [4], 0.56 µM; in experiment [5] it was 0.382 µM; in experiment [6], 0.423 µM. Also, the GI50 in [7] was 0.725 µM; in [8], 0.517 µM; in experiment [9] it was 0.619 µM; in experiment [10], 0.357 µM. Also, the TGI in experiment [1] was 11.2 µM; in experiment [2] it was 29 µM; in experiment [3], 24.4 µM; in [4], 23.7 µM; in experiment [5], 15.3 µM; in experiment [6], 16.2 µM. Besides, the TGI in experiment [7] came out at 5.5 µM; in experiment [8] it was 12.1 µM; in [9] it was 12.4 µM; in experiment [10] it was 3.13 µM.
For the compound `COc1ccc2nc3cc(Cl)ccc3c(NCCNCC(C)O)c2c1` (centres undefined), the GI50 is 1.99 µM in experiment [1]; 2.19 µM in experiment [2]; 1.67 µM in experiment [3]; 1.51 µM in [4]; 1.68 µM in [5]; 2.33 µM in experiment [6]. For the same compound, the GI50 in [7] was 1.68 µM; in experiment [8], 2.16 µM; in experiment [9], 2.36 µM; in [10], 2.01 µM. Moreover, the TGI in experiment [1] was determined as 4.62 µM; in experiment [2], 9.78 µM; in experiment [3], 6.3 µM; in [4], 3.1 µM; in [5] it was 6.71 µM; in experiment [6] it was 5.86 µM. Further, the TGI in experiment [7] was determined as 5.83 µM; in experiment [8], 6.72 µM; in experiment [9] it was 12.3 µM; in experiment [10] it was 4.31 µM.
As to `CN1CC[C@@H](NC(=O)Nc2ccc(C#N)cc2)C[C@@H]1c1nc2ccccc2[nH]1`, the GI50 in experiment [1], in [2], in experiment [3], in experiment [4], in experiment [5] and in experiment [6] was more than 100 µM in each case. In addition, the GI50 in experiment [7] is more than 100 µM; in [8], more than 70.4 µM; in [9], more than 100 µM; in experiment [10], 98.8 µM. Further, the TGI in [1], in experiment [2], in experiment [3], in experiment [4], in experiment [5] and in experiment [6] was more than 100 µM each time. For the same compound, the TGI in [7], in experiment [8], in experiment [9] and in experiment [10] was more than 100 µM in each case.
As to `Nc1n[nH]c2cc(F)c([C@@H]3Nc4ccc5[nH]ncc5c4[C@H]4C5CCC(C5)[C@@H]34)cc12` (some centres undefined), the GI50 in experiment [1] was 0.189 µM; in [2], 1.03 µM; in experiment [3], 0.326 µM; in experiment [4], 0.0854 µM; in [5], 0.12 µM; in experiment [6] it was 0.238 µM. Moreover, the GI50 in experiment [7] was 0.25 µM; in [8], 9.96 µM; in experiment [9], 0.368 µM; in [10], 0.218 µM. The TGI in experiment [1] was 9.3 µM; in experiment [2], more than 35 µM; in experiment [3], 24.4 µM; in experiment [4], 0.306 µM; in experiment [5] it was 6.03 µM; in experiment [6], 18.7 µM. The TGI in experiment [7] is 12 µM; in [8] it was more than 50 µM; in experiment [9], 14.9 µM; in experiment [10], 10 µM.
Turning to `COc1cccc(-c2nc(-c3ccc(NC(=O)OC(C)C)cc3)[nH]c2-c2ccnc(Br)c2)c1`, the GI50 was 1.69 µM in experiment [1]; 3.19 µM in experiment [2]; 4.43 µM in experiment [3]; 3.11 µM in experiment [4]; 0.256 µM in experiment [5]; 2.62 µM in experiment [6]. The GI50 in experiment [7] is 0.974 µM; in [8], 2.08 µM; in experiment [9], 3.35 µM; in [10], 1.98 µM. For the same compound, the TGI in experiment [1] was more than 100 µM; in [2] it was more than 100 µM; in experiment [3], more than 100 µM; in experiment [4], more than 100 µM; in experiment [5], 0.64 µM; in experiment [6], more than 100 µM. For the same compound, the TGI in [7] is more than 100 µM; in experiment [8], 7.64 µM; in experiment [9], more than 100 µM; in [10], 4.87 µM.
